From patent US11155550B2, “Histone deacetylase inhibitors and methods of use thereof” (Reaction Biology Corp., priority 2018, dated 2021)

What was measured:
[1] = molecular target: T1, Human HDAC1 (Homo sapiens, UniProt Q13547); assay: Biochemical HDAC enzymatic assay, HDAC1; conditions: incubation time 120 min
T1 construct: full-length with a C-terminal His-tag and a C-terminal FLAG-tag; His-tag (C); FLAG-tag (C); made in house; host or cells: baculovirus expression system
Method: (§1) Incubation time for HDAC1/2 is 120 min, and 10 min for other HDACs.
Human HDAC1 (GenBank Accession No. NM_004964), full-length with a C-terminal His-tag and a C-terminal FLAG-tag, MW=56 kDa, was expressed in a baculovirus expression system.
(§2) • I. Compound handling: Testing compounds were dissolved in 100% DMSO to a specific concentration. The serial dilution was conducted by epMotion 5070 in DMSO. • II. HDAC reaction buffer: 50 mM Tris-HCl, pH8.0, 137 mM NaCl, 2.7 mM KCl, and 1 mM MgCl2, Added fresh: 1 mg/ml BSA, 1% DMSO. • III. Substrate: Fluorogenic HDAC General Substrate for HDAC1, 2, 3, 6, 10, 11 ans Sirt1, 2 and 3: Arg-His-Lys-Lys(Ac); HDAC8 only substrate: Arg-His-Lys(Ac)-Lys(Ac); Class2A Substrate (HDAC4, 5, 7 and 9): Acetyl-Lys(trifluoroacetyl)-AMC; Sirt5 substrate: Ac-Lys(succinyl)-AMC. • IV. General Reaction Procedure: (Standard IC50 determination) • a. Delivered 2× enzyme in wells of reaction plate except No Enzyme (No En) control wells. Add buffer in No En wells. • b. Delivered compounds in 100% DMSO into the enzyme mixture by Acoustic technology (Echo550; nanoliter range). Spin down and pre-incubation. • c. Delivered 2× Substrate Mixture (Fluorogenic HDAC Substrate and co-factor (500 μM of Nicotinamide adenine dinucleotide (NAD^+) in all Sirt assay) in all reaction wells to initiate the reaction. Spin and shake. • d. Incubated for 1-2 hr. at 30° C. with seal. • e. Added Developer with Trichostatin A (or TMP269 or NAD^+) to stop the reaction and to generate fluorescent color. • f. Fluorescence was read (excitatory, 360; emission, 460) using the EnVision Multilabel Plate Reader (Perkin Elmer) • g. Endpoint reading was taken for analysis after the development reaches plateau. • V. Data Analysis: The percentages of enzyme activity (relative to DMSO controls) and IC50 values were calculated using the GraphPad Prism 4 program based on a sigmoidal dose-response equation.
(§3) The inhibitory activities of HDAC of compounds of the invention were determined using biochemical HDAC assays. Compounds were tested at the indicated doses in the biochemical assays of HDAC1, HDAC2, HDAC3, HDAC4, HDAC5, HDAC6, HDAC7, HDAC8, HDAC9, HDAC10, or HDAC11 enzyme. The curve fit and IC50 values were calculated using the GraphPad Prism 4 program based on a sigmoidal dose-response equation.
as §2, with “[…]” for “μM”, “equation. […]” for “equation.”

[2] = molecular target: T2, Human HDAC8 (Homo sapiens, UniProt Q9BY41); assay: Biochemical HDAC enzymatic assay, HDAC8; conditions: incubation time 10 min
T2 construct: full-length with a C-terminal His tag, MW=46.4 kDa; His tag (C); made in house; host or cells: baculovirus expression system
T2 sequence (Q9BY41 1-377): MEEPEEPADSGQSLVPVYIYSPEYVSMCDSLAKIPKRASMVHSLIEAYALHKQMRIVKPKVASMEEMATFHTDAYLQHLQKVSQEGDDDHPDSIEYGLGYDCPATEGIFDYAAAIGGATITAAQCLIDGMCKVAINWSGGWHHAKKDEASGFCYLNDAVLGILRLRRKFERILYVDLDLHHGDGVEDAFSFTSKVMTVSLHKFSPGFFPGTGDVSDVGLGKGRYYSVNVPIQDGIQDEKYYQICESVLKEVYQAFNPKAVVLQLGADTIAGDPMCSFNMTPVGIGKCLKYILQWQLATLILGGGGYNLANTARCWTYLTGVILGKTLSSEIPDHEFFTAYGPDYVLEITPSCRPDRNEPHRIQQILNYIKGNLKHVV
Method: as §1
Human HDAC8 (GenBank Accession No. NM_018486), full-length with a C-terminal His tag, MW=46.4 kDa, was expressed in a baculovirus expression system.
as §2, §3
as §2, with “[…]” for “μM”, “equation. […]” for “equation.”

[3] = molecular target: T3, Human HDAC2 (Homo sapiens, UniProt Q92769); assay: Biochemical HDAC enzymatic assay, HDAC2; conditions: incubation time 120 min
T3 construct: full-length with a C-terminal His-tag, MW=56 kDa; His-tag (C); made in house; host or cells: baculovirus expression system
Method: as §1
Human HDAC2 (GenBank Accession No. NM_001527), full-length with a C-terminal His-tag, MW=56 kDa, was expressed in a baculovirus expression system.
as §2, §3
as §2, with “[…]” for “μM”, “equation. […]” for “equation.”

T3 sequence (Q92769 whole entry): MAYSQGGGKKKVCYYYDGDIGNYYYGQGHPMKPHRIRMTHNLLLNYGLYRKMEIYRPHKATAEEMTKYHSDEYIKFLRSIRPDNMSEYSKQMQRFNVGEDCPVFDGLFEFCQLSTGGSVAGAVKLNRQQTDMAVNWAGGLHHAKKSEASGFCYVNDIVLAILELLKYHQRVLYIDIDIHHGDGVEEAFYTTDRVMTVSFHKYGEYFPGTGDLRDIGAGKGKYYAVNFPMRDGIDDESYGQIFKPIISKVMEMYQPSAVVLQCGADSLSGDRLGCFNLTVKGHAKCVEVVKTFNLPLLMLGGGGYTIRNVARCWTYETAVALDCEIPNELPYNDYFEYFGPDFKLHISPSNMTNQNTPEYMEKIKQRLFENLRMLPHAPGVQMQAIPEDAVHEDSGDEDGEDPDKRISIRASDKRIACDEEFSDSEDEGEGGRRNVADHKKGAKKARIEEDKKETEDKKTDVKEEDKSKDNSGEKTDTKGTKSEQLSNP
T1 sequence (Q13547 whole entry): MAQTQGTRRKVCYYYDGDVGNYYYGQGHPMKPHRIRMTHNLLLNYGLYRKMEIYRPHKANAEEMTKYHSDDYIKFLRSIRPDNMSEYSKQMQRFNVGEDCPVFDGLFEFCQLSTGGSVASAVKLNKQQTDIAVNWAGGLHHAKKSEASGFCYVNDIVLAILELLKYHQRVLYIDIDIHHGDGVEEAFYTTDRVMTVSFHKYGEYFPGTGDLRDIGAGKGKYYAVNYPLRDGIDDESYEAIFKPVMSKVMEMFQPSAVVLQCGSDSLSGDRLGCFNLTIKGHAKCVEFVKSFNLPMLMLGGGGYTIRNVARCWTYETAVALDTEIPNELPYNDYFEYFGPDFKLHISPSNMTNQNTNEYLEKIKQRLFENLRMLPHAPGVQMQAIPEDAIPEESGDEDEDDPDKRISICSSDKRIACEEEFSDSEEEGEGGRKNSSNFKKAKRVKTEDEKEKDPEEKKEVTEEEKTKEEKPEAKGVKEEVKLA

SMILES	IC50 ([1]; Table 2) [nM]	IC50 ([2]; Table 2) [nM]	IC50 ([3]; Table 2) [nM]	IC50 ([1]; Table 1) [nM]	IC50 ([2]; Table 1) [nM]	IC50 ([3]; Table 1) [nM]
O=C(NO)c1ccc(CN2C(=O)C3(CCOC3)c3ccccc32)cc1 (stereo not drawn) [Compound Example 9]	9100	1920	17200	–	–	–
O=C(NO)c1ccc(CN2C(=O)c3ccccc3C23CCNCC3)cc1 [Compound Example 10, N-hydroxy-4-((3-oxospiro[isoindoline-1,4′-piperidin]-2-yl)methyl)benzamide]	6000	710	> 10000	–	–	–
CN(C)C(=O)N1CCC2(CC1)c1ccccc1C(=O)N2Cc1ccc(C(=O)NO)cc1 [Compound Example 11, 2-(4-(hydroxycarbamoyl)benzyl)-N,N-dimethyl-3-oxospiro[isoindoline-1,4′-piperidine]-1′-carboxamide]	> 10000	520	> 10000	–	–	–
Nc1ccc(-c2cccs2)cc1NC(=O)c1ccc(CN2C(=O)CCCC23CNC3)cc1 [Example 1, N-(2-amino-5-(thiophen-2-yl)phenyl)-4-((6-oxo-2,5-diazaspiro[3.5]nonan-5-yl)methyl)benzamide]	–	–	–	6	> 20000	60
O=C(NO)c1ccc(CN2C(=O)c3ccccc3C23CCN(C2CC2)CC3)cc1 [Compound Example 12, 4-((1′-cyclopropyl-3-oxospiro[isoindoline-1,4′-piperidin]-2-yl)methyl)-N-hydroxybenzamide]	> 10000	1200	> 10000	–	–	–
Nc1ccc(-c2cccs2)cc1NC(=O)c1ccc(CN2C(=O)CCC23CCNCC3)cc1 [Example 2, N-(2-amino-5-(thiophen-2-yl)phenyl)-4-((2-oxo-1,8-diazaspiro[4.5]decan-1-yl)methyl)benzamide]	–	–	–	14	> 20000	146
O=C(NO)c1ccc(CN2C(=O)c3ccccc3C23OCCO3)cc1 [Compound Example 8, N-hydroxy-4-((3-oxospiro[isoindoline-1,2′-[1,3]dioxolan]-2-yl)methyl)benzamide]	8000	400	> 10000	–	–	–

The next lines start with the values.

IC50 ([1]; Table 2) [nM]	IC50 ([2]; Table 2) [nM]	IC50 ([3]; Table 2) [nM]	IC50 ([1]; Table 1) [nM]	IC50 ([2]; Table 1) [nM]	IC50 ([3]; Table 1) [nM]	SMILES
–	–	–	7	> 20000	64	CN1CCC2(CC1)CN(c1ccc(C(=O)Nc3cc(-c4cccs4)ccc3N)cn1)C(=O)O2 [Example 4, N-(2-amino-5-(thiophen-2-yl)phenyl)-6-(8-methyl-2-oxo-1-oxa-3,8-diazaspiro[4.5]decan-3-yl)nicotinamide]
–	–	–	23	> 20000	115	Nc1ccc(-c2ccc(F)cc2)cc1NC(=O)c1ccc(N2CC3(CCOCC3)OC2=O)nc1 [Example 5, N-(4-amino-4′-fluoro-[1,1′-biphenyl]-3-yl)-6-(2-oxo-1,8-dioxa-3-azaspiro[4.5]decan-3-yl)nicotinamide]
–	–	–	20000	> 10000	11800	Nc1cc(F)ccc1NC(=O)c1ccc(CN2C(=O)CCCC23CNC3)cc1 [Example 3, N-(2-amino-4-fluorophenyl)-4-((6-oxo-2,5-diazaspiro[3.5]nonan-5-yl)methyl)benzamide]
–	–	–	85	> 20000	610	Nc1ccc(-c2cccs2)cc1NC(=O)c1ccc(N2CC3(CCNCC3)CCC2=O)nc1 [Example 6, N-(2-amino-5-(thiophen-2-yl)phenyl)-6-(3-oxo-2,9-diazaspiro[5.5]undecan-2-yl)nicotinamide]
